Results taken from patent US9770407B2 (Lundbeck Pharmaceuticals LLC, priority 2005, dated 2017).

What was measured:
clinical = conditions: human, in vivo
[1] = Subset analysis of subjects on extended release CBZ twice daily: predicted IV vs observed oral steady-state Cmax, Cmin, AUC; type: in vivo, human; conditions: N=47; for AUC: human, plasma
Procedure: A subset analysis of the subject data (n=47), including only those subjects taking extended release (ER) formulations of CBZ twice daily (as indicated by the product label), was performed to compare predicted maximum and minimum exposures of CBZ at steady-state administered via IV infusion to those observed following oral administration. CBZ concentration-time profiles following IV administration will differ from oral administration to the greatest extent for subjects on ER products, since these products provide formulation dependent control of the concentration-time profile. Subjects on extended release formulations experience the least fluctuation in concentrations and will maintain higher relative trough concentrations compared to any non-extended release product. Thus, the analysis in this subset gives a conservative assessment of potential differences in peak and trough exposures following IV administration. This analysis included calculations of predicted Cmax, Cmin, and AUCss values of CBZ for subjects predicted to be at steady-state on IV therapy.

[2] = Steady-state trough concentrations, oral observed vs IV predicted by the method of superposition; type: in vivo, human
Procedure: The most relevant factor in considering the dose adjustment for intravenously administered CBZ is for treatment centers to maintain plasma concentrations of CBZ above the therapeutic threshold. Following administration of 100 mg of IV CBZ, observed plasma concentrations followed a […] decay indicating a very fast distribution to tissues followed by a slower elimination of drug out of the body. Steady-state plasma concentrations of IV CBZ were predicted using the method of superposition. Plasma concentrations following a single dose of IV CBZ were scaled-up to steady-state conditions, assuming linear pharmacokinetics, using an accumulation ratio, a mean F of 0.7, and correcting for dose (see Equations 1 and 2). As a result, this calculation allows for a comparison of steady-state trough plasma concentrations following oral (Co and IV (C6 hr) administration of CBZ respectively assuming a dosing interval of once every six hours for the IV formulation.
[formula] Where Cpss(IV) is the plasma concentration (C) at steady state for IV administration; CpsD is the plasma concentration after a single dose; Int is the y-intercept resulting from linear regression of the elimination phase; λ is the terminal elimination rate constant; Dpo is the total oral daily dose; DIV is the single IV dose; F is the absolute bioavailability; T is the dosing interval; and t is the time of each observed concentration.

[3] = human, in vivo, po
[4] = immediate release and extended release tablets; previously estimated; cited from earlier work
[5] = Estimated dissociation of CBZ from the inclusion complex on dilution in blood; conditions: based on simulations of dilution effects; assumes no interaction from endogenous agents
Source text: These relatively weak associations are within the range (100-20,000 M^−1) of those commonly seen with drug: cyclodextrin complexes (Crit. Rev. Ther. Drug Carrier Systems, 14 (1): 1-104, 1997).
The minimal volume of distribution of a drug administered intravenously is based on the plasma volume, which is approximately 5% of the body weight. Therefore, in a 70 kg subject, the plasma volume is approximately 3.5 L. Alternatively, one could assume that the volume of distribution is extracellular water, accounting for approximately 30% of the total body weight, in which case the volume of distribution is about 21 L.
If a 20 mL dose were administered, the dilution ranges from 175-1,050-fold.
Based on the simulations of dilution effects, it appears that 70-95% of the CBZ will immediately dissociate from the inclusion complex in the blood if one assumes no interaction from endogenous agents.

[6] = 5th Percentile, observed, ER products twice daily
[7] = 5th Percentile, predicted, IV every 6 hours
[8] = 95th Percentile, observed, ER products twice daily
[9] = 95th Percentile, predicted, IV every 6 hours
[10] = Maximum, observed, ER products twice daily
[11] = Maximum, predicted, IV every 6 hours
[12] = Median, observed, ER products twice daily
[13] = Median, predicted, IV every 6 hours
[14] = Minimum, observed, ER products twice daily
[15] = Minimum, predicted, IV every 6 hours

Structure (SMILES): NC(=O)N1c2ccccc2C=Cc2ccccc21 [Carbamazepine, 5H-dibenz[b,f]azepine-5-carboxamide]
- AUC (clinical; iv, 100 mg, AUC 0-° o): 36500 ng·h/mL
- clearance (clinical; iv, CL): 0.6 mL/min/kg
- AUC (clinical; po, AUCss (po)): 87200 ng·h/mL
- bioavailability (clinical; po, absolute bioavailability of oral CBZ during maintenance therapy centers around): 70 to 75%
- bioavailability (clinical; po, average oral bioavailability): 65 to 75%
- Oral Cmaxss [1, 6]: 4980 ng/mL
- Oral Cminss [1, 6]: 4320 ng/mL
- IV CmaxSS (mean F = 0.7) [1, 7]: 4800 ng/mL
- IV CminSS (mean F = 0.7) [1, 7]: 2480 ng/mL
- Oral Cmaxss [1, 8]: 14600 ng/mL
- Oral Cminss [1, 8]: 14550 ng/mL
- IV CmaxSS (mean F = 0.7) [1, 9]: 24140 ng/mL
- IV CminSS (mean F = 0.7) [1, 9]: 18640 ng/mL
- Oral Cmaxss [1, 10]: 17100 ng/mL
- Oral Cminss [1, 10]: 16690 ng/mL
- IV CmaxSS (mean F = 0.7) [1, 11]: 47000 ng/mL
- IV CminSS (mean F = 0.7) [1, 11]: 41040 ng/mL
- IV CmaxSS (mean F = 0.7) ([1]; Maximum, predicted, IV every 6 hours, listed as CBZ): 47000 ng/mL
- Oral Cmaxss ([1]; Mean ± SD, observed, ER products (Carbatrol, Tegretol XR) twice daily, highest observed concentration, sparse sampling): 9920 ± 2990 ng/mL
- Oral Cminss ([1]; Mean ± SD, observed, ER products twice daily): 9320 ± 2930 ng/mL
- IV CminSS (mean F = 0.7) ([1]; Mean ± SD, predicted, IV every 6 hours): 8630 ± 6850 ng/mL
- IV CmaxSS (mean F = 0.7) ([1]; Mean ± SD, predicted, scaled from 100 mg single IV dose over 10 minutes, every 6 hours): 11750 ± 7900 ng/mL
- IV CmaxSS (mean F = 0.7) ([1]; Mean ± SD, predicted, scaled from 100 mg single IV dose over 10 minutes, every 6 hours, listed as CBZ): 11750 ng/mL
- Oral Cmaxss [1, 12]: 9810 ng/mL
- Oral Cminss [1, 12]: 9440 ng/mL
- IV CmaxSS (mean F = 0.7) [1, 13]: 9930 ng/mL
- IV CminSS (mean F = 0.7) [1, 13]: 6500 ng/mL
- Oral Cmaxss [1, 14]: 2890 ng/mL
- Oral Cminss [1, 14]: 2890 ng/mL
- IV CmaxSS (mean F = 0.7) [1, 15]: 3170 ng/mL
- IV CminSS (mean F = 0.7) [1, 15]: 1650 ng/mL
- AUC ([1]; iv, 5th Percentile, predicted, IV every 6 hours, read-out: IV AUCSS (mean F = 0.7)): 43100 ng·h/mL
- AUC ([1]; iv, 95th Percentile, predicted, IV every 6 hours, read-out: IV AUCSS (mean F = 0.7)): 257000 ng·h/mL
- AUC ([1]; iv, Maximum, predicted, IV every 6 hours, read-out: IV AUCSS (mean F = 0.7)): 551000 ng·h/mL
- AUC ([1]; iv, Mean ± SD, predicted, IV every 6 hours, read-out: IV AUCSS (mean F = 0.7)): 122000 ± 90900 ng·h/mL
- AUC ([1]; iv, Median, predicted, IV every 6 hours, read-out: IV AUCSS (mean F = 0.7)): 93700 ng·h/mL
- AUC ([1]; iv, Minimum, predicted, IV every 6 hours, read-out: IV AUCSS (mean F = 0.7)): 26900 ng·h/mL
- AUC ([1]; po, 5th Percentile, observed, ER products, 12 hour dosing interval, read-out: Oral AUCss): 50100 ng·h/mL
- AUC ([1]; po, 95th Percentile, observed, ER products, 12 hour dosing interval, read-out: Oral AUCss): 146000 ng·h/mL
- AUC ([1]; po, Maximum, observed, ER products, 12 hour dosing interval, read-out: Oral AUCss): 168000 ng·h/mL
- AUC ([1]; po, Mean ± SD, observed, ER products, 12 hour dosing interval, read-out: Oral AUCss): 96800 ± 28100 ng·h/mL
- AUC ([1]; po, Median, observed, ER products, 12 hour dosing interval, read-out: Oral AUCss): 96000 ng·h/mL
- AUC ([1]; po, Minimum, observed, ER products, 12 hour dosing interval, read-out: Oral AUCss): 28500 ng·h/mL
- statistical comparison of trough values following oral and IV administration ([2]; 6-hour time-point, α=0.10, p=0.1931): not statistically different
- statistical comparison of trough values following oral and IV administration ([2]; 12-hour time-point, post-dose): significantly different
- Difference Between the Means ([2]; Co (oral only) vs C6 hr (IV only), N=62): 0.09456
- concentration at 6 h ([2]; human, plasma, 100 mg, predicted by superposition, IV every six hours, mean F=0.70, N=62, read-out: C6 hr (IV only), mean steady-state plasma concentration at the 6-hour time-point): 8040 ng/mL
- Co (oral only), mean oral steady-state trough plasma concentration ([2]; observed, oral twice daily dosing, n=62 evaluable subjects): 8.98 µg/mL
- calculated mean F value [3]: 75%
- median F value [3]: 67%
- absolute bioavailability [4]: 75-85
- CBZ that will immediately dissociate from the inclusion complex in the blood [5]: 70-95%
